# Data as given in publication PMC6718478, “A Comprehensive Antimicrobial Activity Evaluation of the Recombinant Microcin J25 Against the Foodborne Pathogens Salmonella and E. coli O157:H7 by Using a Matrix of Conditions” (Frontiers in Microbiology, 2019).
# Positions of bridges follow the written chain, without caps; N, C: chain ends. Residues, ends and D or L forms follow the SMILES beside them.
# Legend:
# S. Pullorum [1] = assay: Antimicrobial activity after treatment with simulated intestinal fluid (SIF); assay type: in vitro ADME, Salmonella Pullorum; conditions: simulated intestinal fluid, 2, 4, and 6 h; 1 × MIC; inhibition zone; three replicate experiments
# Experimental: (§1) Biological fluids (SGF; SIF) and serum were prepared as described previously ([Liu et al., 2013]; [Xia et al., 2015]). Then, assays of the antibacterial activity of recombinant MccJ25 in SGF, SIF and serum were performed. S. Pullorum was grown in Mueller-Hinton broth (MHB, Difco Laboratories, Detroit, MI, United States). One milliliter of bacterial inoculum was transferred into 9 mL of each medium with the recombinant MccJ25 and into corresponding control medium without the recombinant MccJ25. LB agar inoculated with the indicator bacteria S. Pullorum (approximately 10^5 viable cells per mL) was poured over plates fitted with Oxford cups to make wells. Hundred and fifty μL of a 1 × MIC final concentration of recombinant MccJ25 samples that had previously been treated with SGF, SIF and serum for 2, 4, and 6 h, respectively, were added to the wells. The agar overlays were incubated overnight at 37°C, and the inhibition zones were recorded.
# S. Pullorum [2] = assay: Antimicrobial activity after treatment with serum; assay type: in vitro ADME, Salmonella Pullorum; conditions: murine serum, 2, 4, and 6 h; 1 × MIC; inhibition zone; three replicate experiments
# Experimental: as §1
# chymotrypsin = assay: Resistance to a single protease, inhibition zone read-out; assay type: in vitro ADME; conditions: chymotrypsin for 2 and 4 h; 1 × MIC; inhibition zone against S. Pullorum; three replicate experiments
# Experimental: (§2) The resistance of recombinant MccJ25 to pepsin, trypsin and chymotrypsin was evaluated as described previously ([Chen et al., 2009]; [Meng et al., 2019]) with slight modification. The indicator Salmonella was prepared (approximately 1 × 10^7 CFU/mL), and 1 mL of bacterial inoculum was transferred into 9 mL of each medium with the recombinant MccJ25 and into corresponding control media without the recombinant MccJ25. LB agar inoculated with the indicator bacteria S. Pullorum (approximately 10^5 viable cells per mL) was poured over plates that had been fitted with Oxford cups to make wells. Then, 150 μL of a 1 × MIC final concentration of recombinant MccJ25 that had been previously treated under various conditions for 2 and 4 h were added to the wells. The agar overlays were incubated overnight at 37°C, and the inhibition zones were recorded.
# pepsin = assay: as above; assay type: in vitro ADME; conditions: pepsin for 2 and 4 h; 1 × MIC; inhibition zone against S. Pullorum; three replicate experiments
# Experimental: as §2
# trypsin = assay: as above; assay type: in vitro ADME; conditions: trypsin for 2 and 4 h; 1 × MIC; inhibition zone against S. Pullorum; three replicate experiments
# Experimental: as §2
# S. Pullorum [3] = assay: Antimicrobial activity after treatment with simulated gastric fluid (SGF); assay type: in vitro ADME, Salmonella Pullorum; conditions: simulated gastric fluid, 2, 4, and 6 h; 1 × MIC; inhibition zone; three replicate experiments
# Experimental: as §1
smiles,measurement,setting,value
"CC[C@H](C)[C@H](NC(=O)CNC(=O)[C@@H](NC(=O)[C@H](Cc1ccccc1)NC(=O)[C@H](Cc1ccc(O)cc1)NC(=O)[C@@H]1CCC(=O)NCC(=O)NCC(=O)N[C@@H](C)C(=O)NCC(=O)N[C@@H](Cc2cnc[nH]2)C(=O)N[C@@H](C(C)C)C(=O)N2CCC[C@H]2C(=O)N1)C(C)C)C(=O)NCC(=O)N[C@H](C(=O)N1CCC[C@H]1C(=O)N[C@H](C(=O)N[C@@H](CO)C(=O)N[C@@H](Cc1ccccc1)C(=O)N[C@@H](Cc1ccc(O)cc1)C(=O)NCC(=O)O)[C@@H](C)CC)[C@@H](C)O [recombinant MccJ25, microcin J25] (GGAGHVPEYFVGIGTPISFYG-OH; lactam N-8)",growth inhibition of S. Pullorum after incubation with SIF,S. Pullorum [1],still inhibited the growth of S. Pullorum in a manner similar to that of recombinant MccJ25 alone
same,growth inhibition of S. Pullorum after incubation with serum,S. Pullorum [2],still inhibited the growth of S. Pullorum in a manner similar to that of recombinant MccJ25 alone
same,antimicrobial activity after protease challenge,chymotrypsin,maintained its antimicrobial activity
same,antimicrobial activity after protease challenge,pepsin,maintained its antimicrobial activity
same,antimicrobial activity after protease challenge,trypsin,maintained its antimicrobial activity
same,growth inhibition of S. Pullorum after incubation with SGF,S. Pullorum [3],still inhibited the growth of S. Pullorum in a manner similar to that of recombinant MccJ25 alone
